Earlier results as cited in US4530920A, “Nonapeptide and decapeptide analogs of LHRH, useful as LHRH agonist” (Syntex (U.S.A.) Inc., priority 1983, dated 1985).

Tested on: LHRH activity
Conditions: for activity relative to LH-RH: 6-position Gly replaced by a D-amino acid, literature; for potency (times LHRH): relative to LHRH, from Rivier et al. 1975 and Vale et al. 1979

| Substance | activity relative to LH-RH | potency (times LHRH) |
| --- | --- | --- |
| [D Ala^6 ]-LHRH | increased activity relative to LH-RH |  |
| [D-Arg^6 ]LHRH |  | 3.9 |
| [D-Arg^6, Pro^9 -NHEt]LHRH |  | 16.7 |
| [D-LYS^6]LHRH |  | 3.8 |
| [D-Leu^6 ]LHRH | increased activity relative to LH-RH |  |
| [D-Phe^6 ]LHRH | increased activity relative to LH-RH |  |
| [D-Trp^6 ]LHRH | increased activity relative to LH-RH | 36 |
| [D-Trp^6, Pro^9 -NHEt]LHRH |  | 144 |
